Test results reported in ChEMBL document CHEMBL1140850, “Structure-activity relationships of lipopolysaccharide sequestration in guanylhydrazone-bearing lipopolyamines” (Bioorg Med Chem, 2009).
Activity calls are given as the source filed them. No cut-off for these calls is given here.

Experiments:
J774.A1 = assay: Inhibition of LPS-induced NO production in mouse J774A1 cells by Griess assay; format: functional, cell-based
Blood = assay: Inhibition of Escherichia coli 0111:B4 LPS-induced proinflammatory cytokine production in human whole blood after 4 hrs; format: functional, tissue-based
Mus musculus [1] = assay: Toxicity in Escherichia coli 0111:B4 LPS-induced lethality in CF1 mouse at 200 mg/kg, ip after 24 hrs; format: organism-based; design: dose 200 mg/kg, route intraperitoneal; settings: in vivo
Mus musculus [2] = assay: Toxicity in Escherichia coli 0111:B4 LPS-induced lethality in ip dosed CF1 mouse after 24 hrs; format: organism-based; settings: in vivo
HEK293 = assay: Inhibition of LPS-induced NF-kappaB nuclear transactivation in HEK293 cells coexpressed with TLR4 assessed as alkaline phosphatase activity by spectrophotometry; format: cell-based; settings: Homo sapiens

SMILES | Activity (J774.A1) | Activity (Blood) | Activity (Mus musculus [1]) | Activity (Mus musculus [2]) | LD100 (Mus musculus [2]) [ng] | Activity (HEK293)
CCCCCCCCCCCCCCCCNC(=N)N/N=C/CCNCCCNCCCCNCCCN.O=C(O)C(F)(F)F | Active | Dose-dependent effect | Non-toxic | Dose-dependent effect | 100 | –
CCCCCCCCCCCCCCCCNCCCNCCCCNCCCNCC/C=N/NC(=N)N | Active | – | – | – | – | Active
